In US8293786B2 (Alltranz Inc., priority 2007, dated 2012):

Tests used:
[1] = test system: human abdominal skin; test: In vitro human skin permeation and skin disposition, flow-through diffusion cells (Example 1); type: in vitro ADME
[2] = Plasma stability of cannabidiol prodrugs (bioconversion to parent drug); type: in vitro ADME; conditions: Table 20, di-prodrug in plasma; for % mono-prodrug at time (h): mono-prodrug formed
Description: An approximated 1 mg/mL stock solution of each prodrug was prepared in 100 μL of ethanol and 900 μL of acetonitrile. Ten (10) μL of stock was spiked into 1 mL of plasma and vortexed. The samples were kept sealed in an amber vial and samples were obtained to analyze for bioconversion to parent drug.

[3] = Table 11, in gel formulation, CBD from applied prodrug
[4] = Table 11, in gel formulation, as applied compound (CBD or intact prodrug)
[5] = Table 11, in gel formulation, prodrug applied, as total CBD equivalents (cannabidiol and/or prodrug)
[6] = Table 12, in gel formulation, CBD from applied prodrug
[7] = Table 12, in gel formulation, as applied compound (CBD or intact prodrug)
[8] = Table 12, in gel formulation, prodrug applied, as total CBD equivalents
[9] = Table 13, in propylene glycol, 36 h, CBD from applied prodrug
[10] = Table 13, in propylene glycol, 36 h, as applied compound (CBD or intact prodrug)
[11] = Table 13, in propylene glycol, 36 h, prodrug applied, as total CBD equivalents
[12] = Table 13, in propylene glycol, CBD from applied prodrug
[13] = Table 13, in propylene glycol, as applied compound (CBD or intact prodrug)
[14] = Table 13, in propylene glycol, prodrug applied, as total CBD equivalents

C=C(C)C1CCC(C)=CC1c1c(OC(=O)CN(C)C)cc(CCCCC)cc1OC(=O)CN(C)C (centres unmarked) [ALL00105, CBD bis(N,N-dimethylglycinate)]
form in which the prodrug permeated through the human skin ([1]; Example 1): permeated primarily as intact prodrug
24 h cumulative amt [1, 3]: 4.1 ± 1.5 nmol
24 h skin conc [1, 3]: 2.5 ± 2.1 µmol/g
Flux [1, 3]: 0.3 ± 0.02 nmol/cm^2/h
Lag time [1, 3]: 0.8 ± 0.4 h
24 h cumulative amt [1, 4]: 66.8 ± 9.0 nmol
24 h skin conc [1, 4]: 82.1 ± 58.9 µmol/g
Flux [1, 4]: 2.9 ± 0.5 nmol/cm^2/h
Lag time [1, 4]: 7.9 ± 3.3 h
24 h cumulative amt [1, 5]: 76.5 ± 7.9 nmol
24 h skin conc [1, 5]: 84.5 ± 60.7 µmol/g
Flux [1, 5]: 3.3 ± 0.7 nmol/cm^2/h
Lag time [1, 5]: 1.2 ± 0.1 h
24 h cumulative amt [1, 6]: 1.1 ± 0.02 nmol
24 h skin conc [1, 6]: 2.2 ± 2.1 µmol/g
Flux [1, 6]: 0.06 ± 0.02 nmol/cm^2/h
Lag time [1, 6]: 1.0 ± 0.6 h
24 h cumulative amt [1, 7]: 7.3 ± 0.03 nmol
24 h skin conc [1, 7]: 27.5 ± 7.4 µmol/g
Flux [1, 7]: 0.37 ± 0.01 nmol/cm^2/h
Lag time [1, 7]: 3.9 ± 4.8 h
24 h cumulative amt [1, 8]: 8.9 ± 0.04 nmol
24 h skin conc [1, 8]: 29.7 ± 9.1 µmol/g
Flux [1, 8]: 0.41 ± 0.03 nmol/cm^2/h
Lag time [1, 8]: 0.9 ± 1.2 h
Flux [1, 9]: 1.4 ± 0.2 nmol/cm^2/h
Lag time [1, 9]: 12.6 ± 1.3 h
Flux [1, 10]: 0.5 ± 0.01 nmol/cm^2/h
Lag time [1, 10]: 7.5 ± 0.0 h
Flux [1, 11]: 1.9 ± 0.2 nmol/cm^2/h
Lag time [1, 11]: 10.0 ± 2.9 h
36 h cumulative amt [1, 12]: 32.6 ± 3.0 nmol
36 h skin conc. [1, 12]: 2.8 ± 3.8 µmol/g
36 h cumulative amt [1, 13]: 14.7 ± 3.2 nmol
36 h skin conc. [1, 13]: 8.8 ± 0.0 µmol/g
36 h cumulative amt [1, 14]: 47.2 ± 0.1 nmol
36 h skin conc. [1, 14]: 7.2 ± 10.1 µmol/g
cumulative amount of total cannabidiol equivalents delivered, compared to cannabidiol ([1]; gel formulation): 3.1-5.9 fold
decrease of lag time of total cannabidiol compared to the parent drug ([1]; gel formulation studies): 7 to 8 h
mean flux enhancement ([1]; mean between the two gel formulation experiments): 2.5
enhancement with the propylene glycol donor solution ([1]; propylene glycol donor solution): did not show any enhancement
% mono-prodrug at time (h) ([2]; 2 h): 0%
% mono-prodrug at time (h) ([2]; 4 h): 0%
% mono-prodrug at time (h) ([2]; 22 h): 0%
% mono-prodrug at time (h) ([2]; 24 h): 0%
% Di-prodrug at time (h) ([2]; 0 h): 100%
% Di-prodrug at time (h) ([2]; 2 h): 92%
% Di-prodrug at time (h) ([2]; 4 h): 88%
% Di-prodrug at time (h) ([2]; 22 h): 58%
% Di-prodrug at time (h) ([2]; 24 h): 55%
